Measurements: patent US20130184308A1, “ACTIVATED BLOOD COAGULATION FACTOR X (FXa) INHIBITOR” (DAIICHI SANKYO COMPANY, LIMITED, priority 2008, published 2013)
Like-named read-outs stand apart in the source and are kept apart here.

Key:
bleeding events [1] = conditions: total knee arthroplasty patients; 5 mg to 60 mg oral once a day 11 to 14 days
Source text: The implementation of this clinical trial conformed to the ethical research guidelines of the Declaration of Helsinki and secured the maximal human rights, welfare, and safety of the test subjects.

bleeding events [2] = test system: bleeding events
Method: (§1) Moreover, secondary evaluations were performed for efficacy by the comparison of the incidence of thromboembolic events, pharmacodynamic indexes, and biomarkers, and for safety by the comparison of the incidences of adverse events and adverse reactions. […] In the group to which warfarin was administered, 0.5-mg and 1-mg warfarin tablets were used and orally administered once a day for 12 weeks as a rule at a dose that allowed PT-INR to be controlled to between 2.0 and 3.0 inclusive (for 70-year-old or older participants, between 1.6 and 2.6 inclusive).
(§2) The clinical trial was carried out by, after obtaining the consent of test subjects, conducting head diagnostic imaging before registration to confirm no bleeding observation, and conducting head diagnostic imaging (CT or MRI), transthoracic echocardiography, lead electrocardiography, blood pressure examination, pulse rate examination, and hematological/biochemical tests.
In the secondary analysis, the hypothesis (comparison) shown below was studied on the incidence of bleeding events using the one-sided Cochran-Armitage test at the 0.025 level of significance.
This clinical trial was carried out in conformity to the standards specified by Article 14 Paragraph 3 and Article 80-2 of the Pharmaceutical Affairs Law and MHW Ordinance No. 28 “Standards for the Implementation of Clinical Trials on Pharmaceutical Products” (Mar. 27, 1997; hereinafter, referred to as the GCP ordinance). The implementation of this clinical trial conformed to the ethical research guidelines of the Declaration of Helsinki and secured the maximal human rights, welfare, and safety of the test subjects. [Protocol No. of this clinical trial: DU-176b-C-J225_Ver.03.05.000].

D-dimer = assay: Dose comparison study in non-valvular atrial fibrillation patients: biomarker D-dimer; assay type: in vivo, human; conditions: 28 days after administration
Method: as §1, §2
(§3) The biomarkers F1+2 and TAT are markers of thrombin formation, while D-dimer is a marker of secondary fibrinolysis.

F1+2, TAT, D-dimer [3] = assay: Early phase II trials: biomarkers F1+2, TAT and D-dimer; assay type: in vivo, human
Source text: as §3

F1+2, TAT, D-dimer [4] = conditions: atrial fibrillation patients; anticoagulant therapy (N. Vene et al., Thromb Haemost 2003); cited from earlier work
[5] = NVAF patients, 30 mg, 45 mg, 60 mg oral once a day 12 weeks

Row | Compound | incidence of bleeding events compared with placebo group (bleeding events [1]) | number of bleeding events (bleeding events [1]) | incidence of bleeding events in four groups divided by BW (60 kg) and Ccr (50) (bleeding events [2]; NVAF patients that received compound (1a)) | incidence of bleeding events (major, clinically relevant non-major, minor), dose response (bleeding events [2]; [5]) | incidence of bleeding events compared with warfarin group (bleeding events [2]; [5]) | incidence of bleeding events, Ccr≦50 versus Ccr>50 (bleeding events [2]; NVAF patients, 45 mg/kg or higher (so in the source)) | incidence of bleeding events, BW≦60 kg versus BW>60 kg (bleeding events [2]; NVAF patients, dose of 45 mg/kg or higher (so in the source)) | D-dimer (secondary fibrinolysis biomarker) (D-dimer; NVAF patients, compared with warfarin) | D-dimer (secondary fibrinolysis biomarker) (D-dimer; test subjects having no history of warfarin administration, compared with warfarin-administered patients) | levels of biomarkers F1+2, TAT and D-dimer (F1+2, TAT, D-dimer [3]) | levels of biomarkers F1+2, TAT and D-dimer (F1+2, TAT, D-dimer [4])
1 | CN1CCc2nc(C(=O)N[C@@H]3C[C@@H](C(=O)N(C)C)CC[C@@H]3NC(=O)C(=O)Nc3ccc(Cl)cn3)sc2C1.Cc1ccc(S(=O)(=O)O)cc1 [compound (1a), N^1-(5-chloropyridin-2-yl)-N^2-((1S,2R,4S)-4-[(dimethylamino)carbonyl]-2-{[(5-methyl-4,5,6,7-tetrahydrothiazolo[5,4-c]pyridin-2-yl)carbonyl]amino}cyclohexyl)ethanediamide p-toluenesulfonate monohydrate] | did not differ from that in the group to which the placebo had been administered | increased in a manner dependent on the dose | highest incidence of bleeding events was obtained in the group of (4) BW≦60 kg, Ccr≦50 | increased as the dose of the compound (1a) got higher | no significant difference | higher in the group to which compound (1a) had been administered involving the test subjects having creatinine clearance (Ccr) of Ccr≦50 | higher in the group to which compound (1a) had been administered involving the test subjects having a body weight (BW) of BW≦60 kg | comparable to that of warfarin | comparable to that of warfarin-administered patients | reduce the levels of these biomarkers | –
2 | CC(=O)CC(c1ccccc1)c1c(O)c2ccccc2oc1=O (centres unmarked) [warfarin, warfarin potassium] | – | – | – | – | – | – | – | – | – | – | decreased by anticoagulant therapy using warfarin
